The numbers were not newly measured in patent US10945961B2, “Method using enteric-coated etidronate for treating calcification, hypercalcaemia, and calcinosis of the brain and other organs” (ZY YTHERAPEUTICS LLC, priority 2017, dated 2021), which cites them from elsewhere.

Entries after “also recorded” stand apart in the source; their conditions may differ.

For data set [1] the following is noted: for plasma half-life: comparison of first- with 2nd and 3rd generation bisphosphonates.
The conditions of data set [2]: preclinical studies; immediate-release.
For data set [3] the following is noted: in vitro.
The subject of data set [4] is patients with brain calcifications (Fahr's Disease).
For data set [5] the following is noted: animal studies.

For the molecule `O=P(O)(O)C(O)(Cn1ccnc1)P(=O)(O)O` [zolendronic acid], the plasma half-life in data set [1] is 146 h.
On to `CC(O)(P(=O)(O)O)P(=O)(O)O` [disodium etidronate, 1-hydroxyethane 1,1-diphosphonic acid], for which the “crossing of the blood-brain barrier” value in data set [2] is recorded as “does not significantly cross the blood-brain barrier”. The “affinity for solid-phase calcium phosphate” value in data set [3] was “high affinity”. Moreover, the “symptomatic effect (seizures, headaches, Parkinsonian symptoms)” value in data set [4] (patients with brain calcification) is “reduction in seizures and headaches; also recorded: symptomatic improvement of seizures, headaches, and Parkinsonian symptoms”. The “size of intracerebral calcifications” value in data set [4] (patients, finding of Loeb) was “does not reduce the size of intracerebral calcifications”. In data set [1], the plasma half-life was 6 h. In data set [1] (in vivo), the metabolism entry is recorded as “not metabolized”. Further, the “amount of drug absorbed after an oral dose” value in data set [1] (oral dose, immediate-release) was 3%. Moreover, the “absorbed dose excreted in urine” value in data set [1] (within 24 hours, fraction of the absorbed dose) is given as “approximately half”. Also, in data set [5], the bone clearance estimates result is recorded as “up to 165 days”.
